Laboratory results reported in ChEMBL document CHEMBL1201862, “PubChem BioAssay data set” (2004).
Calls of active or inactive are those of the source.

Assays:
[1] = test system: Vero; experiment: Vero cell toxicity, dose response, cytotoxicity control, plate reader, cherry-pick samples (AID 687020); type: functional, cell-based; conditions: Chlorocebus sabaeus
[2] = test system: A549; experiment: A549 cell toxicity, dose response, cytotoxicity control, plate reader, cherry-pick samples (AID 687028); type: functional, cell-based; conditions: Homo sapiens
[3] = T. cruzi intracellular amastigote growth inhibition, dose response, imaging, CA-I/72 strain, bovine embryo skeletal muscle, dry powder (AID 651885); type: functional, cell-based
[4] = biological target: NAD-dependent protein deacylase sirtuin-5, mitochondrial (Homo sapiens, UniProt Q9NXA8); experiment: SIRT5 deacylase inhibitors, dose response, biochemical, fluorescence imaging, cherry-pick, set 6 (AID 720597)
Chain of NAD-dependent protein deacylase sirtuin-5, mitochondrial (Q9NXA8 whole entry): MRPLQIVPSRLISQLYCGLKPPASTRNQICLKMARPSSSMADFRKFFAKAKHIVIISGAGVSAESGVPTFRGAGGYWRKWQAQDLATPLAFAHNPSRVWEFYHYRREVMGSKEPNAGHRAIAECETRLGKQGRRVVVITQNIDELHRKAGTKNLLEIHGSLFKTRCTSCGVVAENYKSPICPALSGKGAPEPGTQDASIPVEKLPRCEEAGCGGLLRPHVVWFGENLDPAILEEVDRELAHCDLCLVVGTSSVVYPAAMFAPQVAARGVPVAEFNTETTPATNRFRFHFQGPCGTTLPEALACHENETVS

[5] = Late stage assay provider results from the probe development effort to identify selective inhibitors of heat shock protein 90 (HSP90): Absorbance-based cell proliferation assay in MCF7 cells.; type: functional
[6] = Late stage assay provider results from the probe development effort to identify selective inhibitors of heat shock protein 90 (HSP90): Absorbance-based cell proliferation assay in SKBR3 cells.; type: functional; conditions: SK-BR-3
[7] = microbe, parasite or virus in culture; type: functional; conditions: Mycobacterium tuberculosis
[8] = biological target: COUP transcription factor 2 (Homo sapiens, UniProt P24468); experiment: Luminescence-based cell-based high throughput dose response assay to identify inhibitors of COUP-TFII (NR2F2).; type: functional;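 further: HEK293 cells transiently cotransfected with COUP-TFII expression vector and reporter; luciferase reporter luminescence driven by COUP-TFII from the pX2-168 reporter plasmid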
Chain of COUP transcription factor 2 (P24468 whole entry): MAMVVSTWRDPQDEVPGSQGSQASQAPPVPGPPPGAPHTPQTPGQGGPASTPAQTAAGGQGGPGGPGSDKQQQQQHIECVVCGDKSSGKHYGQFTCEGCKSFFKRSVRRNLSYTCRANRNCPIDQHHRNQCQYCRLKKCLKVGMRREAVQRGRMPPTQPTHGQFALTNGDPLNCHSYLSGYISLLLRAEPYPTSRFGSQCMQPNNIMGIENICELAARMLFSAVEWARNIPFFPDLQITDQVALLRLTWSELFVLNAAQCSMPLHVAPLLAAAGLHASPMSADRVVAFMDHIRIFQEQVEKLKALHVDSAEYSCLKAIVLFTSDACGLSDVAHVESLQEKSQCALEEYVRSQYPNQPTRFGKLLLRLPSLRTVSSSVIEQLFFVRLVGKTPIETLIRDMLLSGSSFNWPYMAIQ

[9] = A375 melanoma cell viability loss, dose response, counter-screen for MITF inhibitor project, CellTiter-Glo luminescence, dry powder, set 4 (AID 624364); type: functional, cell-based; conditions: A-375;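 further: A375 melanoma cells are MITF independent so this is a counter screen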
[10] = A375 melanoma cell cytotoxicity, dose response, counter-screen for MITF inhibitor project, CellTiter-Glo luminescence, dry powder, set 2 (AID 624489); type: functional, cell-based; conditions: A-375;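 further: actives are compounds lowering A375 viability meaning general cytotoxicity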
[11] = A549 cell cytotoxicity, dose response, cytotoxicity control, plate reader, cherry-pick, antagonist series (AID 743412); type: functional, cell-based
[12] = MC4R antagonists, dose response, counter-screen for LGR2 antagonist project, cell-based, plate reader, cherry pick (AID 743444); type: functional;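 further: transfected HEK 293 cells stimulated with alpha-MSH peptide; potency of inhibitors of the alpha-MSH evoked signal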
[13] = cytotoxicity in OVCAR8 ovarian cancer cells, dose response, PAX8 project, cell-based, plate reader, dry powder samples (AID 743197); type: functional; conditions: OVCAR-8
[14] = cytotoxicity in HepG2 cells, dose response, cytotoxicity control, cell-based, cherry-picked samples (AID 1053183); type: functional
[15] = biological target: Paired box protein Pax-8 (Homo sapiens, UniProt Q06710); experiment: inhibitors of PAX8-driven TPO luciferase reporter, dose response, RMG-I cells, cherry-pick (AID 687027); type: functional, cell-based;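 further: luciferase reporter driven by Pax8 target thyroperoxidase promoter measured by SteadyGlo luminescence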
Chain of Paired box protein Pax-8 (Q06710 whole entry): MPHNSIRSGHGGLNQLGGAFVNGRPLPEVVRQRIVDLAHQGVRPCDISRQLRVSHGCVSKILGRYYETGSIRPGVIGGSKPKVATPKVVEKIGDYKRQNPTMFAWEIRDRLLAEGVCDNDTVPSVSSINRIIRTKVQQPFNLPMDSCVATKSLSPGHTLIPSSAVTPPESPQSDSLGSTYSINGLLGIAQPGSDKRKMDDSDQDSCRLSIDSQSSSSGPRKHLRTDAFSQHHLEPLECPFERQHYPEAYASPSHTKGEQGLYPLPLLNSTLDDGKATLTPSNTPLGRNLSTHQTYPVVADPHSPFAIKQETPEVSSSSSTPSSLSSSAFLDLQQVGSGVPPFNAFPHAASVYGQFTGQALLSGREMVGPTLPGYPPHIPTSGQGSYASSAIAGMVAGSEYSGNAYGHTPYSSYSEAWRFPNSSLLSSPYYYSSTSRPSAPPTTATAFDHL

[16] = cytotoxicity in HEK293 cells, dose response, cytotoxicity control, cell-based, cherry-picked samples (AID 1053185); type: functional
[17] = cytotoxicity in A549 cells, dose response, cytotoxicity control, cell-based, cherry-picked samples (AID 1053184); type: functional
[18] = NIH:OVCAR-3 ovarian cancer cell cytotoxicity, dose response, PAX8 inhibitor project, plate reader, dry powder samples (AID 743044); type: functional, cell-based
[19] = IGROV1 ovarian cancer cell cytotoxicity, dose response, PAX8 inhibitor project, plate reader, dry powder samples (AID 743043); type: functional, cell-based; conditions: IGROV-1
[20] = IOSE-T80 ovarian epithelial cell cytotoxicity, dose response, cytotoxicity control for PAX8 inhibitor project, plate reader, dry powder samples (AID 743045); type: functional, cell-based
[21] = HEK293 cell cytotoxicity, dose response, cytotoxicity control, plate reader, cherry-picked samples (AID 743446); type: functional, cell-based
[22] = HepG2 cell cytotoxicity, dose response, cytotoxicity control, plate reader, cherry-pick, antagonist series (AID 743416); type: functional, cell-based
[23] = LGR2 antagonists, dose response, cell-based, HEK293, CRE-luciferase reporter, cherry pick, set 2 (AID 743343); type: functional;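 further: transfected cells were stimulated with diluted bursicon conditioned medium after compound addition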
[24] = biological target: T1, Nuclear receptor subfamily 0 group B member 1 (Homo sapiens, UniProt P51843); type: functional, cell-based;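 further: HEK293T cells transfected with SF-1 and DAX-1 plus StAR promoter luciferase reporter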
T1 sequence (P51843 whole entry): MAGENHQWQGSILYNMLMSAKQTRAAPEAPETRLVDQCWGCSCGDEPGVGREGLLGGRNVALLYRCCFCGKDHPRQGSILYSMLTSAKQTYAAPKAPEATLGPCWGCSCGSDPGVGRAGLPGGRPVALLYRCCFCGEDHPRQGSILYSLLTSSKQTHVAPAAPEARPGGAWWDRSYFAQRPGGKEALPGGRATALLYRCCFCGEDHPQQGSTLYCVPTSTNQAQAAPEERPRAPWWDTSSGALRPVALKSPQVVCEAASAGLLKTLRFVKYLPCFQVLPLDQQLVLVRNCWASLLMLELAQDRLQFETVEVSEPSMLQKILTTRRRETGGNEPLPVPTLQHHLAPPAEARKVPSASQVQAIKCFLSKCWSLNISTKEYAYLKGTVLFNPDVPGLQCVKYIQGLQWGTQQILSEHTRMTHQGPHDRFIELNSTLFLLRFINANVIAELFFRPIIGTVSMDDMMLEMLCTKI

[25] = cells; type: functional, cell-based
[26] = biological target: Luciferin 4-monooxygenase (Photinus pyralis, UniProt P08659); experiment: firefly luciferase enzyme inhibitors, dose response, biochemical, luminescence (AID 1891)
Chain of Luciferin 4-monooxygenase (P08659 whole entry, the tested form may be a part): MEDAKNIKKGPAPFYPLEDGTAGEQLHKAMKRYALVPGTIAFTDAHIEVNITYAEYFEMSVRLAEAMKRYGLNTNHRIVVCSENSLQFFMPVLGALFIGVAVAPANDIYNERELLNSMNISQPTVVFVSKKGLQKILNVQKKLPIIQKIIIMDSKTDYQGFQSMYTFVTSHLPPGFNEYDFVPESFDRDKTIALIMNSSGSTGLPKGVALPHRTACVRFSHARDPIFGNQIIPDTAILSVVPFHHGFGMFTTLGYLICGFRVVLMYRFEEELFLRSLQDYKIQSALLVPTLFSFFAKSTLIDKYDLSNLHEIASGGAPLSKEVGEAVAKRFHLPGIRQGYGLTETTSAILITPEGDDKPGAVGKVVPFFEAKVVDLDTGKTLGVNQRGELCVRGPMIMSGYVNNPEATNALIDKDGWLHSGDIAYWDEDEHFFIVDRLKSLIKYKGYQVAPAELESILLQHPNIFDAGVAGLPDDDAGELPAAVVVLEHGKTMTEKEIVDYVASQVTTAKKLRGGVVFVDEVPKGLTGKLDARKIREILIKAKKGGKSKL

[27] = biological target: T2, Oxysterols receptor LXR-beta (Homo sapiens, UniProt P55055); type: functional, cell-based;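 further: Cell-based luminescence dose-response assay of agonist activity at LXR, run as a confirmatory counterscreen to a daf-12 agonist screen; HEK293 cells with Gal4-LXR fusion and GAL4-driven luciferase reporter; agonist potency from rising luciferase signal of a Gal4-LXR reporter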
T2 sequence (P55055 whole entry): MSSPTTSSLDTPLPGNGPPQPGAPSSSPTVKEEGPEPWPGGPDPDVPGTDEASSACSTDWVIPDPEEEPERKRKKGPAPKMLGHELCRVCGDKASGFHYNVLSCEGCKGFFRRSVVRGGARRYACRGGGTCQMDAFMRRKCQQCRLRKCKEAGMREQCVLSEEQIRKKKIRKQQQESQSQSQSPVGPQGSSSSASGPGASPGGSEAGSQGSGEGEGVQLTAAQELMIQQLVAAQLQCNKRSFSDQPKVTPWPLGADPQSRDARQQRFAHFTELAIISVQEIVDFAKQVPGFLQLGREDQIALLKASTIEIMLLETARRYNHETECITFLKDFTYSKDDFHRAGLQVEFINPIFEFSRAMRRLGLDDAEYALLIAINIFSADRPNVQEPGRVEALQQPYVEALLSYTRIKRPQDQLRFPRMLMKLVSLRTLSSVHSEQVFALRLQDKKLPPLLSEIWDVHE

[28] = cells
[29] = Luminescence Cell-Based Dose Confirmation HTS to Identify Inhibitors of Platelet Dense Granule Release. [Related pubchem assays: 1663 (Primary HTS), 1678 (Summary of Project)]; type: functional
[30] = cells; remark: listed apart in the source
[31] = biological target: T3, Endoribonuclease toxin MazF (Escherichia coli K-12, UniProt P0AE70); experiment: MazF toxin RNase activators, dose response, biochemical, fluorescence, single-stranded RNA substrate, uHTS hits (AID 588481); type: functional
T3 sequence (P0AE70 whole entry): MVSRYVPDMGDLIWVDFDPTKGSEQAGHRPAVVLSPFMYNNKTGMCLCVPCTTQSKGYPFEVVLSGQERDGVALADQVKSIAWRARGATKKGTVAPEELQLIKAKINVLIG

[32] = biological target: T3, Endoribonuclease toxin MazF; experiment: fluorescent RNA oligo signal without MazF, dose response, counter-screen for MazEF activator project, biochemical, fluorescence, single-stranded RNase substrate (AID 588502); type: functional

In the case of `COc1ccccc1C(=O)N1[C@@H](C(C)C)COc2cc(Br)ccc2S1(=O)=O`, the AC50 [1] is reported as 28 µM (active) and the AC50 [2] is reported as 24.4 µM (active).

With `C[C@@H]1CN([C@@H](C)CO)C(=O)c2cccc(NC(=O)c3ccncc3)c2O[C@H]1CN(C)C` the IC50 [3] was > 20 µM (inactive).

With `C[C@@H]1CN([C@H](C)CO)S(=O)(=O)c2ccc(/C=C/c3ccccc3)cc2O[C@H]1CN(C)C(=O)Nc1cc(F)ccc1F` the AC50 [4] was > 30 µM (inactive).

For `COc1ccc(NC(=O)c2coc(=O)c(Br)c2)cc1`, the IC50 [5] was 2.4 µM (active) and the IC50 [6] was 8.2 µM (active).

In the case of `C/C(=N\NC(N)=S)C1C2C3CC4C5CC(C42)C1C53` (configuration not stated), the CC50 [7] is reported as > 40 µM (active) and the IC50 [8] is reported as 6.4 µM (active).

For `Cc1ccc(C(=O)NC2=C(c3ccc(OC(F)(F)F)cc3)C(=O)c3ccccc3C2=O)o1`, the AC50 [9] was 33.4 µM (active) and the AC50 [10] was 21.3 µM (active).

In the case of `Cc1ccccc1S(=O)(=O)N1C[C@@H]2N[C@H](C1)[C@H]2c1ccc(-c2cccc(C#N)c2)cc1`, the AC50 [11] is reported as 7.87 µM (active), the AC50 [12] is reported as 14.3 µM (active) and the AC50 [13] is reported as 39.1 µM (active). The AC50 [14] was 31.9 µM (active), the AC50 [15] was 3.75 µM (active) and the AC50 [16] was 35.5 µM (active). For the same compound, the AC50 [17] was 36.5 µM (active), the AC50 [18] was 21.7 µM (active) and the AC50 [19] was 20.5 µM (active). The AC50 [20] was 51.4 µM (active), the AC50 [21] was 20.4 µM (active) and the AC50 [22] was 9.35 µM (active). For the same compound, the AC50 [23] was 14.8 µM (active).

In the case of `Cc1ccc(NC(=O)c2ccc3snnc3c2)cc1C`, the IC50 [24] is reported as > 67.6 µM (inactive) and the IC50 [25] is reported as > 67.6 µM (inactive).

In the case of `N=C(NOC(=O)c1ccc(Cl)cc1Cl)c1ccccc1`, the EC50 [26] is reported as 1.06 µM (active), the EC50 [27] is reported as > 67.5 µM (inactive) and the EC50 [28] is reported as > 67.5 µM (inactive). For the same compound, the EC50 [29] was 6.01 µM (active).

In the case of `CCOC(=O)c1cc2c(=O)n3ccccc3nc2n(Cc2ccc(Cl)cc2)c1=N`, the AC50 [30] is reported as 1.99 µM (active), the EC50 [31] is reported as > 99 µM (inactive) and the EC50 [32] is reported as > 99 µM (inactive).
